Experiments:
Assay type in all cases: cell-based
[1] = system: SH-SY5Y (human neuroblastoma) cells; assay: Cell viability, Cell Titer Glo 2.0 assay; details: read-out: Viability SHSY5Y.3 GI50
Outline: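 SH-SY5Y neuroblastoma cells are exposed to test compounds for 72 hours at 37 °C and 5% CO2, with final DMSO held at 0.1%. Cell viability is then measured with the CellTiter-Glo 2.0 assay.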

HTT mRNA [2] = assay: Splicing RT-qPCR assay (THP), Table 2A; details: Table 2A, THP; for AC50: HTT alternative junction (AJ) mRNA, read-out: HTT AJ (AC50, increase in alternative junction mRNA); for IC50: HTT canonical junction (CJ) mRNA, read-out: HTT CJ (IC50, decrease in canonical junction mRNA)
MYB mRNA [3] = assay: Gene panel canonical junction qPCR assay, decrease in CJ mRNA, Table 3; details: decrease in CJ mRNA levels, canonical junction qPCR, gene panel
Outline: (§1)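 A673 cells were plated, left to adhere for 24 h, then dosed; K562 cells were plated in 96- or 384-well format and dosed directly. Both were incubated 24 h at 37 °C with an 11-point 3-fold series (top 10 uM final). Canonical junction mRNA was then read by cDNA synthesis and qPCR.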

HTT mRNA [4] = assay: as above; details: decrease in CJ mRNA levels, canonical junction qPCR, gene panel
Outline: as §1

MYB mRNA [5] = assay: Splicing RT-qPCR assay (THP), Table 2A; details: Table 2A, THP; for AC50: MYB alternative junction (AJ) mRNA, read-out: MYB AJ (AC50, increase in alternative junction mRNA); for IC50: MYB canonical junction (CJ) mRNA, read-out: MYB CJ (IC50, decrease in canonical junction mRNA)

Row | SMILES | GI50 [1] [µM] | AC50 (HTT mRNA [2]) [µM] | IC50 (HTT mRNA [2]) [µM] | IC50 (MYB mRNA [3]) [µM] | IC50 (HTT mRNA [4]) [µM] | AC50 (MYB mRNA [5]) [µM] | IC50 (MYB mRNA [5]) [µM]
1 | Cn1cc2cc(NC(=O)c3ccc(N4CCC(NC5CC5)CC4)c4cn(C)nc34)cc(CO)c2n1 [Compound 793] | 1 to 10 | > 10 | > 10 | 1 to 10 | > 10 | 1 to 10 | 1 to 10
2 | C=CCNC1CCN(c2ccc(C(=O)Nc3cc(CO)c4nn(C)cc4c3)c3nn(C)cc23)CC1 [Compound 794, 4-[4-(allylamino)-1-piperidyl]-N-[7-(hydroxymethyl)-2-methyl-indazol-5-yl]-2-methyl-indazole-7-carboxamide] | 1 to 10 | > 10 | > 10 | 0.1 to 1 | > 10 | 1 to 10 | 0.1 to 1
3 | Cc1cn2cc(NC(=O)c3ccc(N4CCC(NC5CC5)CC4)c4cn(C)nc34)nc2c(CN2CCCCS2(=O)=O)n1 [Compound 795] | 1 to 10 | > 10 | > 10 | > 10 | > 10 | > 10 | > 10
4 | C[C@H]1CN(c2ccc(C(=O)Nc3cc(F)c4nn(C)cc4c3)c3sc(OCc4ccnn4C)nc23)C[C@H](C)N1 [Compound 796, 4-[(3S,5S)-3,5-dimethylpiperazin-1-yl]-N-(7-fluoro-2-methyl-indazol-5-yl)-2-[(2-methylpyrazol-3-yl)methoxy]-1,3-benzothiazole-7-carboxamide] | 1 to 10 | > 10 | > 10 | > 10 | > 10 | > 10 | > 10
5 | C[C@H]1CN(c2ccc(C(=O)Nc3cc(F)c4nn(C)cc4c3)c3sc(OCC4CCNC4)nc23)C[C@H](C)N1 (stereo partly drawn) [Compound 797, 4-((3S,5S)-3,5-dimethylpiperazin-1-yl)-N-(7-fluoro-2-methyl-2H-indazol-5-yl)-2-(pyrrolidin-3-ylmethoxy)benzo[d]thiazole-7-carboxamide bis(2,2,2-trifluoroacetate)] | > 10 | > 10 | > 10 | > 10 | > 10 | > 10 | > 10
6 | CCNC1CCN(c2ccc(C(=O)Nc3cc(CNS(C)(=O)=O)c4nn(C)cc4c3)c3nn(C)cc23)CC1 [Compound 798, 4-[4-(ethylamino)-1-piperidyl]-N-[7-(methanesulfonamidomethyl)-2-methyl-indazol-5-yl]-2-methyl-indazole-7-carboxamide] | 1 to 10 | 1 to 10 | 1 to 10 | 1 to 10 | 1 to 10 | 1 to 10 | 1 to 10
7 | COc1nc2c(C(=O)Nc3cn4ccnc4c(F)c3OC)ccc(N3C[C@H](C)N[C@@H](C)C3)c2s1 [Compound 799] | 1 to 10 | > 10 | > 10 | 1 to 10 | > 10 | 1 to 10 | 1 to 10
8 | COc1nc2c(C(=O)Nc3ccc4nn(C)cc4c3)ccc(N3C[C@H](C)N[C@@H](C)C3)c2s1 [Compound 800, 7-[(3S,5S)-3,5-dimethylpiperazin-1-yl]-2-methoxy-N-(2-methylindazol-5-yl)-1,3-benzothiazole-4-carboxamide] | < 0.1 | 0.1 to 1 | 0.1 to 1 | < 0.1 | 0.1 to 1 | < 0.1 | < 0.1
9 | COc1nc2c(C(=O)Nc3cc(F)c4nn(C)cc4c3)ccc(N3CC4CCC(C3)N4)c2s1 [Compound 801, 7-(3,8-diazabicyclo[3.2.1]octan-3-yl)-N-(7-fluoro-2-methyl-indazol-5-yl)-2-methoxy-1,3-benzothiazole-4-carboxamide] | 0.1 to 1 | 1 to 10 | 1 to 10 | < 0.1 | 1 to 10 | < 0.1 | < 0.1
10 | Cc1cn2cc(NC(=O)c3ccc(N4CCC(NC5CC5)CC4)c4cn(C)nc34)nc2c(Cn2ccnn2)n1 [Compound 803] | 1 to 10 | > 10 | > 10 | > 10 | > 10 | > 10 | > 10
11 | Cc1cn2cc(NC(=O)c3ccc(N4CCC(NC5CC5)CC4)c4cn(C)nc34)nc2c(CNC2(C)COC2)n1 [Compound 804, 4-[4-(cyclopropylamino)-1-piperidyl]-2-methyl-N-[6-methyl-8-[[(3-methyloxetan-3-yl)amino]methyl]imidazo[1,2-a]pyrazin-2-yl]indazole-7-carboxamide] | 1 to 10 | > 10 | > 10 | > 10 | > 10 | > 10 | > 10
12 | Cc1cn2cc(NC(=O)c3ccc(N4CCC(NC5CC5)CC4)c4cn(C)nc34)nc2c(CCS(=O)(=O)N(C)C)n1 [Compound 805] | 1 to 10 | > 10 | > 10 | 1 to 10 | > 10 | > 10 | 1 to 10
13 | COc1cc2c(N3CCC(NC4CC4)CC3)ccc(C(=O)Nc3cn4cc(C)nc(CNS(C)(=O)=O)c4n3)n2n1 [Compound 806] | 1 to 10 | > 10 | > 10 | 1 to 10 | > 10 | 1 to 10 | 1 to 10
14 | COC(=O)NCc1nc(C)cn2cc(NC(=O)c3ccc(N4CCC(NC5CC5)CC4)c4cn(C)nc34)nc12 [Compound 807] | 1 to 10 | > 10 | > 10 | > 10 | > 10 | > 10 | > 10
15 | COc1nc2c(C(=O)Nc3ccc4nn(C)cc4c3C(C)=O)ccc(N3C[C@H](C)N[C@@H](C)C3)c2s1 [Compound 808] | 1 to 10 | 1 to 10 | > 10 | > 10 | > 10 | > 10 | > 10
16 | COc1nc2c(C(=O)Nc3cc4cn(C)nc4nc3OC)ccc(N3C[C@H](C)N[C@@H](C)C3)c2s1 [Compound 809] | 0.1 to 1 | > 10 | > 10 | 0.1 to 1 | > 10 | < 0.1 | 0.1 to 1
17 | COc1nc2c(C(=O)Nc3cc(F)c4nc(CO)cn4c3)ccc(N3C[C@H](C)N[C@@H](C)C3)c2s1 [Compound 810] | < 0.1 | 0.1 to 1 | 1 to 10 | < 0.1 | 1 to 10 | < 0.1 | < 0.1
18 | Cc1cn2cc(NC(=O)c3ccc(N4CCNCC4)c4cn(C)nc34)nc2c(CNS(C)(=O)=O)n1 [Compound 811] | > 10 | > 10 | > 10 | > 10 | > 10 | 1 to 10 | > 10
19 | CCNCc1nc(C)cn2cc(NC(=O)c3ccc(N4CCC(NC5CC5)CC4)c4cn(C)nc34)nc12 [Compound 812] | 1 to 10 | > 10 | > 10 | > 10 | > 10 | > 10 | > 10
